Measured values reported in patent publication US11542274B1, “Therapeutic compounds and methods of use thereof” (AGENCY FOR SCIENCE, TECHNOLOGY AND RESEARCH (A*STAR), priority 2019, dated 2023).

Tested on: RAMOS cells (Burkitt's lymphoma cell line)
Test: Anti-proliferation assay (CellTiter-Glo)
Assay type: cell-based
Details: Homo sapiens, 72 h, 3 days
Method: In cell growth experiments, cells were seeded in 96-well cell culture plates at a density of 3000 of RAMOS cells/well in 100 μL of culture medium. 100 μL of the diluted solution containing the tested compound was added to the appropriate wells of the cell plate. After addition of the tested compound, the cells were incubated at 37° C. in an atmosphere of 5% CO2 for 3 days. CellTiter-Glo (CTG) reagent from the Promega CellTiter-Glo Luminescent Cell Viability Assay kit (#G7572) was added into an OptiPlate 96 (Perkin Elmer, White, Opaque, #6005299) in the dark, incubated for at least 2 hrs, and luminescence signal was read using Tecan Safire II Multi-Mode Plate Reader. The GI50 was calculated by nonlinear regression analysis using GraphPad Prism5 software.
GI50 is the concentration for 50% of maximal inhibition of cell proliferation.

| Structure (SMILES) | GI50 [µM] |
| --- | --- |
| Cc1sc2c(c1C)C(c1ccc(Cl)cc1)=N[C@@H](CC(=O)NCCOCCOCCOCCC(=O)NC1CCN(C(=O)c3ccc4c(c3)NC(=O)C4)CC1)c1nnc(C)n1-2 [Compound 110, (S)-3-(2-(2-(2-(2-(4-(4-chlorophenyl)-2,3,9-trimethyl-6H-thieno[3,2-f][1,2,4]triazolo[4,3-a][1,4]diazepin-6-yl)acetamido)ethoxy)ethoxy)ethoxy)-N-(1-(2-oxoindoline-6-carbonyl)piperidin-4-yl)propanamide] | > 1 |
| Cc1sc2c(c1C)C(c1ccc(Cl)cc1)=N[C@@H](CC(=O)NCCOCCOCCOCCC(=O)NC1CCCN(C(=O)c3ccc4c(c3)NC(=O)C4)C1)c1nnc(C)n1-2 (stereo partly drawn) [Compound 111, 3-(2-(2-(2-(2-((S)-4-(4-chlorophenyl)-2,3,9-trimethyl-6H-thieno[3,2-f][1,2,4]triazolo[4,3-a][1,4]diazepin-6-yl)acetamido)ethoxy)ethoxy)ethoxy)-N-(1-(2-oxoindoline-6-carbonyl)piperidin-3-yl)propanamide] | > 1 |
| Cc1sc2c(c1C)C(c1ccc(Cl)cc1)=N[C@@H](CC(=O)NCCOCCOCCOCCC(=O)NC1CCCN(C(=O)c3ccc4c(c3)CC(=O)N4)C1)c1nnc(C)n1-2 (stereo partly drawn) [Compound 112, 3-(2-(2-(2-(2-((S)-4-(4-chlorophenyl)-2,3,9-trimethyl-6H-thieno[3,2-f][1,2,4]triazolo[4,3-a][1,4]diazepin-6-yl)acetamido)ethoxy)ethoxy)ethoxy)-N-(1-(2-oxoindoline-5-carbonyl)piperidin-3-yl)propanamide] | 0.1 to 1 |
| Cc1sc2c(c1C)C(c1ccc(Cl)cc1)=N[C@@H](CC(=O)NCCOCCOCCOCCNc1cc(-c3ccc4c(c3)NC(=O)C4)ccn1)c1nnc(C)n1-2 [Compound 113, (S)-2-(4-(4-chlorophenyl)-2,3,9-trimethyl-6H-thieno[3,2-f][1,2,4]triazolo[4,3-a][1,4]diazepin-6-yl)-N-(2-(2-(2-(2-((4-(2-oxoindolin-6-yl)pyridin-2-yl)amino)ethoxy)ethoxy)ethoxy)ethyl)acetamide] | 0.1 to 1 |
| Cc1sc2c(c1C)C(c1ccc(Cl)cc1)=N[C@@H](CC(=O)NCCOCCOCCOCCOCCNc1ccc(-c3ccc4c(c3)CC(=O)N4)cn1)c1nnc(C)n1-2 [Compound 114, (S)-2-(4-(4-chlorophenyl)-2,3,9-trimethyl-6H-thieno[3,2-f][1,2,4]triazolo[4,3-a][1,4]diazepin-6-yl)-N-(14-((5-(2-oxoindolin-5-yl)pyridin-2-yl)amino)-3,6,9,12-tetraoxatetradecyl)acetamide] | 0.1 to 1 |
| Cc1sc2c(c1C)C(c1ccc(Cl)cc1)=N[C@@H](CC(=O)NCCOCCOCCOCCOCCOCCNc1ccc(-c3ccc4c(c3)CC(=O)N4)cn1)c1nnc(C)n1-2 [Compound 115, (S)-2-(4-(4-chlorophenyl)-2,3,9-trimethyl-6H-thieno[3,2-f][1,2,4]triazolo[4,3-a][1,4]diazepin-6-yl)-N-(17-((5-(2-oxoindolin-5-yl)pyridin-2-yl)amino)-3,6,9,12,15-pentaoxaheptadecyl)acetamide] | 0.1 to 1 |
| Cc1sc2c(c1C)C(c1ccc(Cl)cc1)=N[C@@H](CC(=O)NCCOCCOCCNc1ccc(-c3ccc4c(c3)CC(=O)N4)cn1)c1nnc(C)n1-2 [Compound 116, (S)-2-(4-(4-chlorophenyl)-2,3,9-trimethyl-6H-thieno[3,2-f][1,2,4]triazolo[4,3-a][1,4]diazepin-6-yl)-N-(2-(2-(2-((5-(2-oxoindolin-5-yl)pyridin-2-yl)amino)ethoxy)ethoxy)ethyl)acetamide] | 0.001 to 0.1 |
| Cc1sc2c(c1C)C(c1ccc(Cl)cc1)=N[C@@H](CC(=O)NCCOCCNc1ccc(-c3ccc4c(c3)CC(=O)N4)cn1)c1nnc(C)n1-2 [Compound 117, (S)-2-(4-(4-chlorophenyl)-2,3,9-trimethyl-6H-thieno[3,2-f][1,2,4]triazolo[4,3-a][1,4]diazepin-6-yl)-N-(2-(2-((5-(2-oxoindolin-5-yl)pyridin-2-yl)amino)ethoxy)ethyl)acetamide] | 0.001 to 0.1 |
| Cc1sc2c(c1C)C(c1ccc(Cl)cc1)=N[C@@H](CC(=O)Nc1ccc(OCCOCCOCCNc3ccc(-c4ccc5c(c4)CC(=O)N5)cn3)cc1)c1nnc(C)n1-2 [Compound 118, (S)-2-(4-(4-chlorophenyl)-2,3,9-trimethyl-6H-thieno[3,2-f][1,2,4]triazolo[4,3-a][1,4]diazepin-6-yl)-N-(4-(2-(2-(2-((5-(2-oxoindolin-5-yl)pyridin-2-yl)amino)ethoxy)ethoxy)ethoxy)phenyl)acetamide] | 0.1 to 1 |
| Cc1sc2c(c1C)C(c1ccc(Cl)cc1)=N[C@@H](CC(=O)N1CCN(c3ccc(-c4ccc5c(c4)CC(=O)N5)cn3)CC1)c1nnc(C)n1-2 [Compound 119, (S)-5-(6-(4-(2-(4-(4-chlorophenyl)-2,3,9-trimethyl-6H-thieno[3,2-f][1,2,4]triazolo[4,3-a][1,4]diazepin-6-yl)acetyl)piperazin-1-yl)pyridin-3-yl)indolin-2-one] | 0.1 to 1 |
| Cc1sc2c(c1C)C(c1ccc(Cl)cc1)=N[C@@H](CC(=O)NCCOCCOCCC(=O)N1CCN(c3ccc(-c4ccc5c(c4)CC(=O)N5)cn3)CC1)c1nnc(C)n1-2 [Compound 120] | 0.001 to 0.1 |
| Cc1sc2c(c1C)C(c1ccc(Cl)cc1)=N[C@@H](CC(=O)NCCOCCOCCOCCNc1ccc(-c3ccc4c(c3)CC(=O)N4C)cn1)c1nnc(C)n1-2 [Compound 121, (S)-2-(4-(4-chlorophenyl)-2,3,9-trimethyl-6H-thieno[3,2-f][1,2,4]triazolo[4,3-a][1,4]diazepin-6-yl)-N-(2-(2-(2-(2-((5-(1-methyl-2-oxoindolin-5-yl)pyridin-2-yl)amino)ethoxy)ethoxy)ethoxy)ethyl)acetamide] | 0.1 to 1 |
| Cc1sc2c(c1C)C(c1ccc(Cl)cc1)=N[C@@H](CC(=O)N1CCC(N3CCN(c4ccc(-c5ccc6c(c5)CC(=O)N6)cn4)CC3)CC1)c1nnc(C)n1-2 [Compound 123, (S)-5-(6-(4-(1-(2-(4-(4-chlorophenyl)-2,3,9-trimethyl-6H-thieno[3,2-f][1,2,4]triazolo[4,3-a][1,4]diazepin-6-yl)acetyl)piperidin-4-yl)piperazin-1-yl)pyridin-3-yl)indolin-2-one] | 0.001 to 0.1 |
| Cc1sc2c(c1C)C(c1ccc(Cl)cc1)=N[C@@H](CC(=O)NCCNc1ccc(-c3ccc4c(c3)CC(=O)N4)cn1)c1nnc(C)n1-2 [Compound 124, (S)-2-(4-(4-chlorophenyl)-2,3,9-trimethyl-6H-thieno[3,2-f][1,2,4]triazolo[4,3-a][1,4]diazepin-6-yl)-N-(2-((5-(2-oxoindolin-5-yl)pyridin-2-yl)amino)ethyl)acetamide] | 0.001 to 0.1 |
| Cc1sc2c(c1C)C(c1ccc(Cl)cc1)=N[C@@H](CC(=O)NC1CCN(c3ccc(-c4ccc5c(c4)CC(=O)N5)cn3)CC1)c1nnc(C)n1-2 [Compound 125, (S)-2-(4-(4-chlorophenyl)-2,3,9-trimethyl-6H-thieno[3,2-f][1,2,4]triazolo[4,3-a][1,4]diazepin-6-yl)-N-(1-(5-(2-oxoindolin-5-yl)pyridin-2-yl)piperidin-4-yl)acetamide] | 0.001 to 0.1 |
| Cc1sc2c(c1C)C(c1ccc(Cl)cc1)=N[C@@H](CC(=O)NCCCCCNc1ccc(-c3ccc4c(c3)CC(=O)N4)cn1)c1nnc(C)n1-2 [Compound 126, (S)-2-(4-(4-chlorophenyl)-2,3,9-trimethyl-6H-thieno[3,2-f][1,2,4]triazolo[4,3-a][1,4]diazepin-6-yl)-N-(5-((5-(2-oxoindolin-5-yl)pyridin-2-yl)amino)pentyl)acetamide] | 0.001 to 0.1 |
| Cc1sc2c(c1C)C(c1ccc(Cl)cc1)=N[C@@H](CC(=O)NCC1CCN(c3ccc(-c4ccc5c(c4)CC(=O)N5)cn3)CC1)c1nnc(C)n1-2 [Compound 127, (S)-2-(4-(4-chlorophenyl)-2,3,9-trimethyl-6H-thieno[3,2-f][1,2,4]triazolo[4,3-a][1,4]diazepin-6-yl)-N-((1-(5-(2-oxoindolin-5-yl)pyridin-2-yl)piperidin-4-yl)methyl)acetamide] | 0.1 to 1 |
| Cc1sc2c(c1C)C(c1ccc(Cl)cc1)=N[C@@H](CC(=O)NC1CN(c3ccc(-c4ccc5c(c4)CC(=O)N5)cn3)C1)c1nnc(C)n1-2 [Compound 128, (S)-2-(4-(4-chlorophenyl)-2,3,9-trimethyl-6H-thieno[3,2-f][1,2,4]triazolo[4,3-a][1,4]diazepin-6-yl)-N-(1-(5-(2-oxoindolin-5-yl)pyridin-2-yl)azetidin-3-yl)acetamide] | 0.1 to 1 |
| Cc1sc2c(c1C)C(c1ccc(Cl)cc1)=N[C@@H](CC(=O)NC1CCN(c3ccc(-c4ccc5c(c4)CC(=O)N5)cn3)C1)c1nnc(C)n1-2 (stereo partly drawn) [Compound 129, 2-((S)-4-(4-chlorophenyl)-2,3,9-trimethyl-6H-thieno[3,2-f][1,2,4]triazolo[4,3-a][1,4]diazepin-6-yl)-N-(1-(5-(2-oxoindolin-5-yl)pyridin-2-yl)pyrrolidin-3-yl)acetamide] | 0.001 to 0.1 |
| Cc1sc2c(c1C)C(c1ccc(Cl)cc1)=N[C@@H](CC(=O)NCCOCCC(=O)N1CCN(c3ccc(-c4ccc5c(c4)CC(=O)N5)cn3)CC1)c1nnc(C)n1-2 [Compound 130, (S)-2-(4-(4-chlorophenyl)-2,3,9-trimethyl-6H-thieno[3,2-f][1,2,4]triazolo[4,3-a][1,4]diazepin-6-yl)-N-(2-(3-oxo-3-(4-(5-(2-oxoindolin-5-yl)pyridin-2-yl)piperazin-1-yl)propoxy)ethyl)acetamide] | 0.001 to 0.1 |
| Cc1sc2c(c1C)C(c1ccc(Cl)cc1)=N[C@@H](CC(=O)Nc1ccc(OCCOCCOCCOCCOCCNc3ccc(-c4ccc5c(c4)CC(=O)N5)cn3)cc1)c1nnc(C)n1-2 [Compound 131, (S)-2-(4-(4-chlorophenyl)-2,3,9-trimethyl-6H-thieno[3,2-f][1,2,4]triazolo[4,3-a][1,4]diazepin-6-yl)-N-(4-((14-((5-(2-oxoindolin-5-yl)pyridin-2-yl)amino)-3,6,9,12-tetraoxatetradecyl)oxy)phenyl)acetamide] | 0.001 to 0.1 |
